Experimental findings from patent US20060069110A1, “Substituted heterocyclic compounds and methods of use” (priority 2004, published 2006) are described below.

For this assay, the system named is THP1 cells (LPS induced TNF release). As to the kind of experiment: Lipopolysaccharide-Activated THP1 Cell TNF Production Assay. The format is cell-based. The settings on record: Homo sapiens, THP-1; THP1 cells, bacterial LPS, secreted TNF-α after 3 h at 37° C.; read-out: IC50 values in the THP1 cell assay (LPS induced TNF release). Summed up:
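THP1 cells at 1E6/mL were treated with 3-fold serial compound dilutions and LPS (1 μg/mL stock) for 3 h at 37 °C. Secreted TNF-α was quantified by electrochemiluminescent sandwich immunoassay. Percent of DMSO control versus concentration was fitted to a 4-parameter equation.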
As usually defined, the IC50 is the concentration that inhibits the measured activity by half. Consider `C[C@H](N)c1cccc(C[C@H](C)Nc2nccc(N(C)c3ccnc(-c4ccccc4)n3)n2)c1` [Example 40, N^2-((S)-1-(3-((S)-1-Aminoethyl)phenyl)propan-2-yl)-N^4-methyl-N^4-(2-phenyl-pyrimidin-4-yl)pyrimidine-2,4-diamine], for which the IC50 was no more than 20 µM. With `Cc1nccn1-c1nccc(N(C)c2ccnc(-c3ccccc3)n2)n1` [N-methyl-N-(2-(2-methyl-1H-imidazol-1-yl)pyrimidin-4-yl)-2-phenylpyrimidin-4-amine], the IC50 was no more than 20 µM.

Take `CC(=O)N1CCC(Nc2nccc(N(C)c3c[nH]c(=O)c(-c4ccccc4)c3)n2)CC1` [Example 167, 5-((2-(1-Acetylpiperidin-4-ylamino)pyrimidin-4-yl)(methyl)amino)-3-phenyl-pyridin-2(1H)-one]: the IC50 is no more than 20 µM. Take `CN(c1cccc(-c2ccoc2)n1)c1ccnc(NCCc2ccccc2)n1` [Example 146, N^4-(6-(Furan-3-yl)pyridin-2-yl)-N^4-methyl-N^2-phenethylpyrimidine-2,4-diamine]: the IC50 is no more than 20 µM. The same measure for `C[C@@H](Cc1cccc(CN)c1)Nc1nccc(N(C)c2nc(-c3ccccc3F)ncc2F)n1` [Example 68, N^2-((S)-1-(3-(Aminomethyl)phenyl)propan-2-yl)-N^4-(5-fluoro-2-(2-fluorophenyl)-pyrimidin-4-yl)-N^4-methylpyrimidine-2,4-diamine]: no more than 20 µM; for `CN(c1cc(-c2ccccc2)c(=O)n(C)c1)c1ccnc(NC2CCN(C(=O)OC(C)(C)C)CC2)n1` [Example 173, tert-Butyl 4-(4-(Methyl(1-methyl-6-oxo-5-phenyl-1,6-dihydropyridin-3-yl)amino)pyrimidin-2-ylamino)piperidine-1-carboxylate]: no more than 20 µM; for `C[C@@H](Cc1cccc(-n2ccnc2)c1)Nc1nccc(N(C)c2ccnc(-c3ccccc3)n2)n1` [Example 116, N^2-((S)-1-(3-(1 H-Imidazol-1-yl)phenyl)propan-2-yl)-N^4-methyl-N^4-(2-phenyl-pyrimidin-4-yl)pyrimidine-2,4-diamine]: no more than 20 µM.

As to `CN(c1cc(-c2ccccc2)c(=O)n(C)c1)c1ccnc(N[C@@H](CC(=O)O)Cc2ccccc2)n1` [(3R)-3-((4-(methyl(1-methyl-6-oxo-5-phenyl-1,6-dihydro-3-pyridinyl)amino)-2-pyrimidinyl)amino)-4-phenylbutanoic acid], the IC50 is no more than 20 µM.

Turning to `Cc1cccc(-c2cccc(N(C)c3ccnc(NCCc4ccccc4)n3)n2)c1` [Example 138, N^4-Methyl-N^2-phenethyl-N^4-(6-m-tolylpyridin-2-yl)-pyrimidine-2,4-diamine], the IC50 was no more than 20 µM. The same measure for `CN(c1ccnc(NC[C@@H](O)c2ccccc2)n1)c1ccnc(-c2ccccc2)n1` [Example 111, (S)-2-(4-(Methyl(2-phenylpyrimidin-4-yl)amino)pyrimidin-2-ylamino)-1-phenyl-ethanol]: no more than 20 µM; for `CN(c1ccnc(N[C@H]2CC[C@H](N)CC2)n1)c1ccnc(-c2ccccc2)n1` [Example 13, N^2-((1r,4r)-4-Aminocyclohexyl)-N^4-methyl-N^4-(2-phenylpyrimidin-4-yl)pyrimidine-2,4-diamine]: no more than 20 µM; for `CCOC(=O)c1cnc(-c2ccccc2)nc1Nc1ccnc(NCCc2ccccn2)n1` [Example 98, Ethyl 2-phenyl-4-(2-(2-(pyridin-2-yl)ethylamino)pyrimidin-4-ylamino)pyrimidine-5-carboxylate]: no more than 20 µM. To `CN(c1ccnc(NCCc2cccnc2)n1)c1ccnc(-c2cc(F)ccc2F)n1` [Example 78, N^4-(2-(2,5-Difluorophenyl)pyrimidin-4-yl)-N^4-methyl-N^2-(2-(pyridin-3-yl)ethyl)-pyrimidine-2,4-diamine] belongs no more than 20 µM; to `CN(c1ccnc(NCCc2cccnc2)n1)c1ccnc(-c2cccc(F)c2F)n1` [Example 76, N^4-(2-(2,3-Difluorophenyl)pyrimidin-4-yl)-N^4-methyl-N^2-(2-(pyridin-3-yl)ethyl)-pyrimidine-2,4-diamine], no more than 20 µM. In the case of `CN(c1ccnc(N[C@@H](CNCCN)Cc2ccccc2)n1)c1ccnc(-c2ccccc2)n1` [Example 50, (R)-N^2-(3-(2-Aminoethylamino)-1-phenylpropan-2-yl)-N^4-methyl-N^4-(2-phenyl-pyrimidin-4-yl)pyrimidine-2,4-diamine], the IC50 is no more than 20 µM. The same measure for `C[C@H](NC(=O)OC(C)(C)C)c1cccc(CCNc2nccc(N(C)c3ccnc(-c4ccccc4)n3)n2)c1` [Example 20, (S)-tert-Butyl 1-(3-(2-(4-(methyl(2-phenylpyrimidin-4-yl)amino)pyrimidin-2-yl-amino)ethyl)phenyl)ethylcarbamate]: no more than 20 µM; for `CN(c1ccnc(N[C@@H](CCN)Cc2ccccc2)n1)c1ccnc(-c2ccccc2)n1` [Example 57, (R)-N^2-(4-Amino-1-phenylbutan-2-yl)-N^4-methyl-N^4-(2-phenylpyrimidin-4-yl)pyrimidine-2,4-diamine]: no more than 20 µM. The same measure for `CN(c1ccnc(NCCc2ccccn2)n1)c1ccnc(-c2ccccc2)n1` [Example 107, N^4-Methyl-N^4-(2-phenylpyrimidin-4-yl)-N^2-(2-(pyridin-2-yl)ethyl)pyrimidine-2,4-diamine]: no more than 20 µM; for `CC(Cc1cccc(CN)c1)Nc1nccc(N(C)c2c[nH]c(=O)c(-c3ccccc3)c2)n1` (stereo not shown) [Example 171, 5-((2-(1-(3-(Aminomethyl)phenyl)propan-2-ylamino)pyrimidin-4-yl)(methyl)-amino)-3-phenylpyridin-2(1H)-one]: no more than 20 µM; for `Cc1ccc(-c2cccc(N(C)c3ccnc(NCCc4ccccc4)n3)n2)cc1` [Example 137, N^4-Methyl-N^2-phenethyl-N^4-(6-p-tolylpyridin-2-yl)-pyrimidine-2,4-diamine]: no more than 20 µM. In the case of `CN(c1ccnc(N[C@H](Cc2ccccc2)CN2CCOCC2)n1)c1ccnc(-c2ccccc2)n1` [Example 53, (R)-N^4-methyl-N^2-(3-morpholino-1-phenylpropan-2-yl)-N^4-(2-phenylpyrimidin-4-yl)pyrimidine-2,4-diamine], the half-maximal inhibitory concentration (IC50) was no more than 20 µM.

In the case of `COc1ccccc1-c1nccc(N(C)c2ccnc(NCCc3cccnc3)n2)n1` [Example 104, N^4-(2-(2-Methoxyphenyl)pyrimidin-4-yl)-N^4-methyl-N^2-(2-(pyridin-3-yl)ethyl)-pyrimidine-2,4-diamine], the IC50 is no more than 20 µM. The same measure for `CN(c1ccnc(NCCc2ccc3c(n2)NCCC3)n1)c1ccnc(-c2ccccc2)n1` [Example 114, N^4-Methyl-N^4-(2-phenylpyrimidin-4-yl)-N^2-(2-(5,6,7,8-tetrahydro-1,8-naphthyridin-2-yl)ethyl)pyrimidine-2,4-diamine]: no more than 20 µM. The same measure for `C[C@H](N)c1cccc(C[C@H](C)Nc2nccc(N(C)c3c[nH]c(=O)c(-c4ccccc4)c3)n2)c1` [Example 170, 5-((2-((S)-1-(3-((S)-1-Aminoethyl)phenyl)propan-2-ylamino)pyrimidin-4-yl)-(methyl)amino)-3-phenylpyridin-2(1H)-one]: no more than 20 µM. The same measure for `CN(c1cccc(-c2ccccc2C(F)(F)F)n1)c1ccnc(NCCc2ccccc2)n1` [Example 130, N^4-Methyl-N^2-phenethyl-N^4-(6-(2-(trifluoromethyl)phenyl)pyridin-2-yl)-pyrimidine-2,4-diamine]: no more than 20 µM; for `CN(c1ccnc(-c2ccccc2)n1)c1ccnc(N2CC[C@H]2Cc2ccccc2)n1` [N-methyl-2-phenyl-N-(2-((2R)-2-(phenylmethyl)-1-azetidinyl)-4-pyrimidinyl)-4-pyrimidinamine]: no more than 20 µM. With `CN(c1cccc(-c2ccccc2Cl)n1)c1ccnc(NCCc2ccccc2)n1` [Example 136, N^4-(6-(2-Chlorophenyl)pyridin-2-yl)-N^4-methyl-N^2-phenethylpyrimidine-2,4-diamine], the half-inhibitory concentration (IC50) is no more than 20 µM. As for `C[C@@H](Cc1cccc(CN)c1)Nc1nccc(N(C)c2ccnc(-c3ccccc3)n2)n1` [Example 89, (S)-N^2-(1-(3-(Aminomethyl)phenyl)propan-2-yl)-N^4-methyl-N^4-(2-phenylpyrimidin-4-yl)pyrimidine-2,4-diamine], the IC50 was no more than 20 µM. To `COc1cccc(-c2cccc(N(C)c3ccnc(NCCc4ccccc4)n3)n2)c1` [Example 141, N^4-(6-(3-Methoxyphenyl)pyridin-2-yl)-N^4-methyl-N^2-phenethylpyrimidine-2,4-diamine] belongs no more than 20 µM; to `CC(=O)N1CCC(Nc2nccc(N(C)c3ccnc(-c4ccccc4)n3)n2)CC1` [Example 22, 1-(4-(4-(Methyl(2-phenylpyrimidin-4-yl)amino)pyrimidin-2-ylamino)piperidin-1-yl)ethanone], no more than 20 µM; to `C[C@@H](Cc1cccc(C2(N)CC2)c1)Nc1nccc(N(C)c2ccnc(-c3ccccc3)n2)n1` [Example 7, (S)-N^2-(1-(3-(1-Aminocyclopropyl)phenyl)propan-2-yl)-N^4-methyl-N^4-(2-phenylpyrimidin-4-yl)pyrimidine-2,4-diamine], no more than 20 µM. To `CN(c1cccc(-c2ccsc2)n1)c1ccnc(NCCc2ccccc2)n1` [Example 147] belongs no more than 20 µM; to `Cc1cc(N(C)c2ccnc(-c3ccccc3)n2)nc(N[C@@H](C)Cc2cccc([C@@H](C)N)c2)n1` [Example 36, N^2-((S)-1-(3-((R)-1-Aminoethyl)phenyl)propan-2-yl)-N^4,6-dimethyl-N^4-(2-phenylpyrimidin-4-yl)pyrimidine-2,4-diamine], no more than 20 µM. On to `C[C@@H](Cc1cccc(C(C)(C)N)c1)Nc1nccc(N(C)c2ccnc(-c3ccccc3)n2)n1` [Example 29, (S)-N^2-(1-(3-(2-Aminopropan-2-yl)phenyl)propan-2-yl)-N^4-methyl-N^4-(2-phenylpyrimidin-4-yl)pyrimidine-2,4-diamine], for which the IC50 is no more than 20 µM.
